Test results published in ChEMBL document CHEMBL4616706 (ACS Med Chem Lett, 2020).

Each compound was assayed against Gamma-secretase (assay: Modulation of gamma secretase in human H4 cells overexpressing human APP695 harboring K595N/M596L Swedish double mutant assessed as reduction in total amyloid beta (1 to 42 residues) production measured after 24 hrs by AlphaLISA assay).
Type: cell-based

Compound	IC50 [nM]
Fc1ccc(N2CCCCn3nc(N[C@@H]4[C@@H]5CC[C@H]4CN(c4ccnc(C(F)(F)F)c4)C5)nc32)cc1F	34
Cc1cc(N2C[C@H]3CC[C@@H](C2)[C@@H]3Nc2nc3n(n2)CCN3c2ccc(C(F)(F)F)cc2)ncn1	26
Fc1ccc(C2CCn3nc(N[C@@H]4[C@@H]5CC[C@H]4CN(c4ccnc(C(F)(F)F)c4)C5)nc32)cc1F (stereo partly specified)	88
Cc1cc(N2C[C@H]3CC[C@@H](C2)[C@@H]3Nc2nc3n(n2)CCCCN3c2ccc(C(F)(F)F)cc2)ncn1	19
Cc1nnc(N2C[C@H]3CC[C@@H](C2)[C@@H]3Nc2nc3n(n2)CCCCC3c2ccc(F)c(F)c2F)o1 (mixture of isomers)	49
FC(F)(F)c1cccc(C2CCCCn3nc(N[C@@H]4[C@@H]5CC[C@H]4CN(c4cnnc(Cl)c4)C5)nc32)c1 (mixture of isomers)	31
Fc1ccc(C2CCCn3nc(N[C@@H]4[C@@H]5CC[C@H]4CN(c4cc(Cl)ncn4)C5)nc32)c(F)c1F (mixture of isomers)	30
Fc1ccc(C2CCn3nc(N[C@@H]4[C@@H]5CC[C@H]4CN(c4ccnc(C(F)(F)F)c4)C5)nc32)c(F)c1F (mixture of isomers)	126
COc1cc(N2C[C@H]3CC[C@@H](C2)[C@@H]3Nc2nc3n(n2)CCCCC3c2cccc(C(F)(F)F)c2)cnn1 (mixture of isomers)	40
Fc1ccc(C2CCCCn3nc(N[C@@H]4[C@@H]5CC[C@H]4CN(c4ccnc(C(F)(F)F)c4)C5)nc32)c(F)c1F (mixture of isomers)	31
Cc1nnc(N2C[C@H]3CC[C@@H](C2)[C@@H]3Nc2nc3n(n2)CCCC3c2ccc(F)c(F)c2F)o1 (mixture of isomers)	237
Cc1cc(N2C[C@H]3CC[C@@H](C2)[C@@H]3Nc2nc3n(n2)CCCC3c2ccc(C(F)(F)F)cc2)ncn1 (mixture of isomers)	25
Cc1cc(N2C[C@H]3CC[C@@H](C2)[C@@H]3Nc2nc3n(n2)CCCCC3c2ccc(F)c(F)c2F)on1 (mixture of isomers)	39
Cc1noc(N2C[C@H]3CC[C@@H](C2)[C@@H]3Nc2nc3n(n2)CCCCC3c2ccc(F)c(F)c2F)n1 (mixture of isomers)	44
Fc1ccc(C2CCCn3nc(N[C@@H]4[C@@H]5CC[C@H]4CN(c4ccnc(C(F)(F)F)c4)C5)nc32)c(F)c1F (mixture of isomers)	44
Cc1cc(N2C[C@H]3CC[C@@H](C2)[C@@H]3Nc2nc3n(n2)CCCCC3c2ccc(C(F)(F)F)cc2)ncn1 (mixture of isomers)	14
